The test deals with S. cerevisiae eIF2B mutant, luciferase reporter luminescence. The test can be described thus: eIF2B reporter inhibitors in yeast strains, dose response, S. cerevisiae, mutant, wild-type, luminescence, growth (AID 792).
Setting [1] is: measured here: mutant yeast growth.
Setting [2] is: S. cerevisiae wild-type, luminescence.

This note sets out measurements from PubChem BioAssay AID792 (PCMD, 2007).

What is called IC50 is the concentration that inhibits the measured activity by half.

SMILES strings stand for the structures. Records with an inconclusive call do not appear. Activity calls are given as the source filed them. The rule behind the calls is not given here.

On to `O=c1c2ccccc2nc(-c2ccco2)n1-c1nc2ccccc2s1`, for which the IC50 was > 100 µM (inactive). Under setting [1], this molecule yielded a concentration for half-maximal inhibition (IC50) of over 100 µM.

As for `N#CC1=C(SCC(=O)c2ccc(Cl)cc2)NC2=C(C(=O)CCC2)C1c1ccco1` (centres undefined), the IC50 is > 100 µM (inactive). In addition, the IC50 under setting [1] is over 100 µM.

Regarding `NC(=O)CSc1nnc(-c2ccco2)n1N`, the IC50 is > 100 µM (inactive). This molecule had a half-inhibitory concentration (IC50) under setting [1] of over 100 µM.

Regarding `CCN(CC)c1ccc(NC(=O)c2cccc(OC)c2)c(C)c1`, the IC50 result is “inactive”. Under setting [2], this molecule registered an IC50 of over 100 µM. Under setting [1], this molecule returned an IC50 of over 100 µM.

In the case of `CC1(C)CC(=O)C=C(NCCCNC2CCCCC2)C1`, the IC50 was > 100 µM (inactive). In addition, under setting [1], the IC50 is over 100 µM.

For the molecule `Cc1c(C(=O)N2CCCC2)sc(NC(=O)c2ccc(Cl)cc2)c1C#N`, the IC50 was > 100 µM (inactive). The 50% inhibitory concentration (IC50) under setting [1] is over 100 µM.

For `Cc1ccc(S(=O)(=O)N2CCOCC2)cc1C(=O)NCc1ccco1`, the IC50 was > 100 µM (inactive). The same molecule had an IC50 under setting [1] of over 100 µM.

As for `NC(=O)Cn1c(=O)n(Cc2ccco2)c(=O)c2c3c(sc21)CCCCC3`, the IC50 was > 100 µM (inactive). In addition, the IC50 under setting [1] was over 100 µM.

Turning to `O=C(CC1Nc2ccccc2NC1=O)NC1CCCCC1` (centres undefined), the IC50 was > 100 µM (inactive). Further, under setting [1], the IC50 is over 100 µM.

Consider `CCOC(=O)N1CCN(C(=O)COc2cc(=O)n(CC)c3ccccc23)CC1`, for which the IC50 was > 100 µM (inactive). For the same molecule, the IC50 under setting [1] is over 100 µM.

As for `CCCOc1ccc(C(=O)N2CCCc3ccccc32)cc1`, the IC50 was > 100 µM (inactive). Under setting [1], this molecule returned an IC50 of over 100 µM.

For `CCCc1nc(-c2ccccc2O)n(-c2ccccc2)n1`, the IC50 is > 100 µM (inactive). This molecule returned an IC50 under setting [1] of over 100 µM.

As for `CCOC(=O)c1c(N)nn(C(C)=O)c1-c1ccccc1`, the IC50 was > 100 µM (inactive). For the same molecule, the IC50 under setting [1] is over 100 µM.

For `Cc1c(C(=O)N2CCN(c3ccccc3F)CC2)sc2nc(-c3ccccc3)cn12`, the IC50 is > 100 µM (inactive). In addition, under setting [1], the IC50 was over 100 µM.

`O=C(CSc1nnc(-c2ccccn2)n1-c1ccccc1)Nc1ccc2c(c1)OCO2`: the IC50 is > 100 µM (inactive). The molecule further gave an IC50 under setting [1] of over 100 µM.

Consider `C=CCN(C(=O)CCC(=O)O)C1CC(=O)N(c2ccc(OC)cc2)C1=O` (centres undefined), for which the IC50 was > 100 µM (inactive). Besides, under setting [1], the IC50 was over 100 µM.

As to `O=C(NC(Cc1ccccc1)C(=O)OCC(=O)N1CCc2ccccc21)c1ccco1` (centres undefined), the IC50 is > 100 µM (inactive). This molecule also showed an IC50 under setting [1] of over 100 µM.

`COc1ccc(CCNC(=O)c2ccc(N3CCCC3=O)cc2)cc1OC`: the IC50 is > 100 µM (inactive). Besides, the IC50 under setting [2] is over 100 µM. Also, the IC50 under setting [1] was over 100 µM.

For `O=c1c2ccccc2nc(CN2CCOCC2)n1-c1ccccc1F`, the IC50 was > 100 µM (inactive). The molecule also gave a concentration for half-maximal inhibition (IC50) under setting [1] of over 100 µM.

For `CN(C)P(=O)(C(Cl)=C(N1CCCCC1)N1CCCCC1)N(C)C`, the IC50 was > 100 µM (inactive). The molecule further registered an IC50 under setting [1] of over 100 µM.

On to `CCOC(=O)CC1=NC(=O)CS1`, for which the IC50 is > 100 µM (inactive). In addition, the IC50 under setting [1] is over 100 µM.

`CCCOCC1CC2(CC(C)(c3csc(N)n3)OC2=O)C(=O)O1` (centres undefined): the IC50 was > 100 µM (inactive). Moreover, the half-maximal inhibitory concentration (IC50) under setting [1] was over 100 µM.

With `CC(C)C(NC(=O)c1ccccc1)C(=O)NC1=NCCS1` (centres undefined), the IC50 is > 100 µM (inactive). Under setting [1], the IC50 is over 100 µM.

Regarding `Cc1ccnc2nc(C(=O)Nc3ccc(N4CCOCC4)cc3)nn12`, the IC50 result was “inactive”. This molecule showed an IC50 under setting [2] of 11.1 µM. Under setting [1], this molecule returned an IC50 of over 100 µM.

In the case of `CCOC(=O)Cn1c(=O)c2c(nc3n2CCN3Cc2ccccc2)n(C)c1=O`, the IC50 was > 100 µM (inactive). In addition, the IC50 under setting [1] was over 100 µM.

Regarding `CC(C)OC(=O)CCc1nc2ccccc2[nH]c1=O`, the IC50 was > 100 µM (inactive). The molecule also yielded an IC50 under setting [1] of over 100 µM.

Regarding `COC(=O)c1cc(O)c(OCc2ccccc2)c(O)c1`, the IC50 is > 100 µM (inactive). This molecule also displayed an IC50 under setting [1] of over 100 µM.

`CC1(C)Cc2c(sc3c2c(=N)n(Cc2ccco2)c(=O)n3Cc2ccc(F)cc2)CO1`: the IC50 was > 100 µM (inactive). Moreover, the IC50 under setting [1] was over 100 µM.

On to `CN1C(=O)CC2(CC(=O)N(Cc3ccccc3)C2)C1=O` (centres undefined), for which the IC50 is > 100 µM (inactive). Moreover, the IC50 under setting [1] is over 100 µM.

Turning to `CCN(CC(N)=O)S(=O)(=O)c1ccc(Br)cc1`, the IC50 is > 100 µM (inactive). Under setting [1], this molecule had an IC50 of over 100 µM.

For the molecule `CC(=O)c1cccc(-n2nnnc2SCC(=O)Nc2cccc(NC(=O)c3ccco3)c2)c1`, the IC50 was > 100 µM (inactive). Under setting [1], this molecule came in with an IC50 of over 100 µM.

As for `CCC(=O)NCCSc1c[nH]c2ccccc12`, the IC50 is > 100 µM (inactive). Further, under setting [1], the IC50 was over 100 µM.

As to `COc1ccc(OC)c(C2=Nn3c(nnc3-c3cccc(OC(C)C)c3)SC2)c1`, the IC50 is > 100 µM (inactive). This molecule gave a concentration for half-maximal inhibition (IC50) under setting [1] of over 100 µM.

For the molecule `O=C(CCNS(=O)(=O)c1ccc2c(c1)CCC(=O)N2)NCc1cccnc1`, the IC50 is > 100 µM (inactive). This molecule gave an IC50 under setting [1] of over 100 µM.

In the case of `COc1ccccc1NC(=S)NNC(=O)c1ccccc1`, the IC50 was > 100 µM (inactive). Under setting [1], the IC50 was over 100 µM.

On to `Cc1nc(-c2cccc(S(=O)(=O)N3CC(C)CC(C)C3)c2)cs1` (centres undefined), for which the IC50 is > 100 µM (inactive). Besides, under setting [1], the IC50 was over 100 µM.

For `CCCn1nnc(NC(=O)C(c2ccccc2)c2ccccc2)n1`, the IC50 was > 100 µM (inactive). In addition, under setting [1], the IC50 was over 100 µM.

As to `CC(=O)/C(C(=N)N1CCN(c2cccc(Cl)c2)CC1)=C(\C)O`, the IC50 is > 100 µM (inactive). Moreover, under setting [1], the IC50 is over 100 µM.

Take `CN(C)CCN1C(=O)C(O)=C(C(=O)c2ccco2)C1c1ccccc1F` (centres undefined): the IC50 was > 100 µM (inactive). In addition, the IC50 under setting [1] is over 100 µM.

In the case of `Cc1nn(-c2ccccc2)c(Cl)c1/C=N/Nc1ccc(S(=O)(=O)Nc2ccccc2C(=O)O)cc1[N+](=O)[O-]`, the IC50 was > 100 µM (inactive). The same molecule yielded a half-inhibitory concentration (IC50) under setting [1] of over 100 µM.

As to `O=C(CCN1CCN(C(=O)c2ccco2)CC1)Nc1ccc(F)cc1`, the IC50 was > 100 µM (inactive). Moreover, under setting [1], the IC50 is over 100 µM.

In the case of `CCC(C(=O)NCc1ccc(OC)cc1)n1nc(C)n2c(cc3occc32)c1=O` (centres undefined), the IC50 is > 100 µM (inactive). Moreover, under setting [1], the IC50 is over 100 µM.

Take `Cc1cc(C(=O)Nc2sc3c(c2C#N)CCC(C)C3)no1` (centres undefined): the IC50 was > 100 µM (inactive). Under setting [1], this molecule yielded an IC50 of over 100 µM.

As for `COc1ccc(C(=O)Nn2c(C)nnc2-n2nc(C)cc2C)cc1OC`, the IC50 was > 100 µM (inactive). Under setting [1], the IC50 was over 100 µM.

As for `COC(=O)[C@H](Cc1ccccc1)NC(=O)NCc1ccccc1OC`, the IC50 is > 100 µM (inactive). Under setting [1], the IC50 is over 100 µM.

In the case of `Cc1ccc2c(c1)C1CN(C)CCC1N2C(=O)Nc1cccc(Cl)c1` (centres undefined), the IC50 is > 100 µM (inactive). The molecule also showed an IC50 under setting [1] of over 100 µM.

As for `COc1ccc(-c2nnn(CC(=O)N(Cc3ccc(F)cc3)C(C(=O)NC3CCCC3)c3ccc(F)cc3)n2)cc1` (centres undefined), the IC50 is > 100 µM (inactive). Further, under setting [1], the IC50 is over 100 µM.

For `CCn1cc(C(=O)NCC2CCCO2)c(=O)c2cc(S(=O)(=O)N3CCCCC3)ccc21` (centres undefined), the IC50 is > 100 µM (inactive). Also, the IC50 under setting [1] is over 100 µM.

Turning to `CCCCCOC(=O)Cn1c(SCC(=O)Nc2ccccc2)nc2c1c(=O)[nH]c(=O)n2C`, the IC50 is > 100 µM (inactive). Also, the IC50 under setting [1] was over 100 µM.

As for `O=C(Nc1cccnc1)c1ccccc1Oc1ccccc1`, the IC50 was > 100 µM (inactive). The molecule further registered a half-maximal inhibitory concentration (IC50) under setting [1] of over 100 µM.

With `O=C(c1c[nH]c2ccc(S(=O)(=O)N3CCOCC3)cc2c1=O)N1CCCC1`, the IC50 is > 100 µM (inactive). In addition, the IC50 under setting [1] is over 100 µM.

`O=C(Nc1cccnc1)c1noc2c1CCCCC2`: the IC50 result is “inactive”. In addition, under setting [2], the IC50 was determined as 97.3 µM. Under setting [1], this molecule yielded an IC50 of over 100 µM.

As to `COc1ccc(S(=O)(=O)N2CCCCC2C(=O)O)cc1OC` (centres undefined), the IC50 is > 100 µM (inactive). The molecule further displayed an IC50 under setting [1] of over 100 µM.

On to `CC(C)CCNC1=NCCCCC1`, for which the IC50 was > 100 µM (inactive). The same molecule registered an IC50 under setting [1] of over 100 µM.

As to `CCOC(=O)Cc1csc(NC(NC(=O)CC)(C(F)(F)F)C(F)(F)F)n1`, the IC50 is > 100 µM (inactive). The molecule further came in with an IC50 under setting [1] of over 100 µM.

Turning to `O=C(O)c1cc2c(ccc3ccccc32)[nH]1`, the IC50 was > 100 µM (inactive). The molecule also displayed a 50% inhibitory concentration (IC50) under setting [1] of over 100 µM.

With `CC(C)C1Oc2ccccc2N(CC(=O)N(Cc2ccccn2)CC2CCCO2)C1=O` (centres undefined), the IC50 was > 100 µM (inactive). In addition, the IC50 under setting [1] is over 100 µM.

Consider `N#Cc1c(N2CCOCC2)nc(-c2ccco2)c2c1CCCC2`, for which the IC50 is > 100 µM (inactive). The molecule also displayed an IC50 under setting [1] of over 100 µM.

As to `Cc1ccc(Cn2nnnc2CN2CCC(O)(c3ccc(F)cc3)CC2)cc1`, the IC50 is > 100 µM (inactive). The IC50 under setting [1] was over 100 µM.

For the molecule `O=C(CCc1ccccc1)Nc1ccc(Cl)cn1`, the IC50 is > 100 µM (inactive). Under setting [1], this molecule showed an IC50 of over 100 µM.

`CCN1CCN(c2cc(C(C)(C)C)nc3c(-c4ccccc4)c(C)nn23)CC1`: the IC50 result is “inactive”. For the same molecule, the IC50 under setting [1] stood at 15.8 µM.

In the case of `Cc1cc(/C([O-])=C(/C(=S)Nc2ccc(F)cc2)[n+]2ccccc2)c(C)n1-c1ccc(F)cc1`, the IC50 is > 100 µM (inactive). The molecule also showed a 50% inhibitory concentration (IC50) under setting [1] of over 100 µM.

With `COc1ccccc1-c1nnc2sc(COc3ccc(Cl)cc3)nn12`, the IC50 was > 100 µM (inactive). The same molecule came in with an IC50 under setting [1] of over 100 µM.

For the molecule `Cc1cccn2c(=O)c3cc(C(=O)N4c5ccccc5CC4C)n(C)c3nc12` (centres undefined), the IC50 was > 100 µM (inactive). Further, the IC50 under setting [1] is over 100 µM.

As for `O=c1c(-c2cc3ccccc3o2)[n+]([O-])c2ccccc2n1OCc1ccccn1`, the IC50 is > 100 µM (inactive). Also, under setting [1], the IC50 was over 100 µM.
